Residue numbers refer to the chain shown, from its start. Names and notes keep the numbering of the source. Where two headings read alike, the source gives them in different places.
Tests used:
[1] = target: T1, Zymomonas mobilis ribitol dehydrogenase, wild-type, SEQ ID NO: 4 (Zymomonas mobilis, UniProt Q5NQS1); experiment: Dynamical (kinetic) parameters of ribitol dehydrogenase to coenzyme NAD(H)/NADP(H), wild-type; type: biochemical
T1 sequence (Q5NQS1 74-338): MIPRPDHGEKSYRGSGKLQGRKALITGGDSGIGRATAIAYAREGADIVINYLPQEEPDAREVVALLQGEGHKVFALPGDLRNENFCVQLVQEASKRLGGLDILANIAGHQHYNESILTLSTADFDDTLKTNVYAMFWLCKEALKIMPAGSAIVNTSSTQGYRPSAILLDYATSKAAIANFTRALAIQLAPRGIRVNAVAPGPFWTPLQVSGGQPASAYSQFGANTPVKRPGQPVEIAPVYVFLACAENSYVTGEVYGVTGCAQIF
Protocol: The optimum pH on dehydrogenation activity of the ribitol dehydrogenase was measured using 20 mM of Tris-HCl buffer. The enzyme activity was determined by monitoring the change per minute in absorbance at 340 nm while the sample was reacted in the presence of NAD(H) and ribitol.
Then, dynamical parameters were measured through a nonlinear regression analysis.

[2] = target: T2, Zymomonas mobilis ribitol dehydrogenase (SEQ ID NO: 4) variant S156A (Zymomonas mobilis, UniProt Q5NQS1, S229A); experiment: Dynamical parameters to coenzyme, variant S156A; type: biochemical
T2 sequence (Q5NQS1 74-338 S229A): T1 sequence (Q5NQS1 74-338) with S156A
From the text: (§1) There were no differences between the expression amount of various amino acid variants of Ser 156 and the expression amount of wide-type. The dynamical parameter of each of variants was confirmed using the above variants.

[3] = target: T3, Zymomonas mobilis ribitol dehydrogenase (SEQ ID NO: 4) variant S156G (Zymomonas mobilis, UniProt Q5NQS1, S229G); experiment: Dynamical parameters to coenzyme, variant S156G; type: biochemical
T3 sequence (Q5NQS1 74-338 S229G): T1 sequence (Q5NQS1 74-338) with S156G
From the text: as §1

[4] = target: T4, Zymomonas mobilis ribitol dehydrogenase (SEQ ID NO: 4) variant S156T (Zymomonas mobilis, UniProt Q5NQS1, S229T); experiment: Dynamical parameters to coenzyme, variant S156T; type: biochemical
T4 sequence (Q5NQS1 74-338 S229T): T1 sequence (Q5NQS1 74-338) with S156T
From the text: as §1

[5] = target: T5, Zymomonas mobilis ribitol dehydrogenase (SEQ ID NO: 4) variant S156C (Zymomonas mobilis, UniProt Q5NQS1, S229C); experiment: Dynamical parameters to coenzyme, variant S156C; type: biochemical
T5 sequence (Q5NQS1 74-338 S229C): T1 sequence (Q5NQS1 74-338) with S156C
From the text: as §1

[6] = target: T6, Zymomonas mobilis ribitol dehydrogenase (SEQ ID NO: 4) variant S156Y (Zymomonas mobilis, UniProt Q5NQS1, S229Y); experiment: Dynamical parameters to coenzyme, variant S156Y; type: biochemical
T6 sequence (Q5NQS1 74-338 S229Y): T1 sequence (Q5NQS1 74-338) with S156Y
From the text: as §1

[7] = target: T7, Zymomonas mobilis ribitol dehydrogenase (SEQ ID NO: 4) variant S156W (Zymomonas mobilis, UniProt Q5NQS1, S229W); experiment: Dynamical parameters to coenzyme, variant S156W; type: biochemical
T7 sequence (Q5NQS1 74-338 S229W): T1 sequence (Q5NQS1 74-338) with S156W
From the text: as §1

[8] = target: T8, Zymomonas mobilis ribitol dehydrogenase (SEQ ID NO: 4) variant S156D, SEQ ID NO: 5 (Zymomonas mobilis, UniProt Q5NQS1, N321D/S229D); experiment: Dynamical parameters to coenzyme, variant S156D; type: biochemical
T8 sequence (Q5NQS1 74-338 S229D/N321D): T1 sequence (Q5NQS1 74-338) with S156D, N248D
From the text: In addition, the present invention provides a ribitol dehydrogenase mutant selected from the group consisting of a) a mutant, in which serine, an amino acid at position 156 of the ribitol dehydrogenase having an amino acid sequence as set forth in SEQ ID NO: 4 is substituted with aspartic acid; and b) a mutant, in which tyrosine, an amino acid at position 51 of the ribitol dehydrogenase having an amino acid sequence as set forth in SEQ ID NO: 4 is substituted with aspartic acid and serine, an amino acid at position 156 is substituted with alanine.
The mutants have preferably amino acid sequences as set forth in SEQ ID NOS: 5 and 6, respectively, but the present invention is not limited thereto.
as §1

[9] = target: T9, Zymomonas mobilis ribitol dehydrogenase (SEQ ID NO: 4) variant S156E (Zymomonas mobilis, UniProt Q5NQS1, S229E); experiment: Dynamical parameters to coenzyme, variant S156E; type: biochemical
T9 sequence (Q5NQS1 74-338 S229E): T1 sequence (Q5NQS1 74-338) with S156E
From the text: as §1

[10] = substrate: NC(=O)c1ccc[n+]([C@@H]2O[C@H](COP(=O)(O)OP(=O)(O)OC[C@H]3O[C@@H](n4cnc5c(N)ncnc54)[C@H](OP(=O)(O)O)[C@@H]3O)[C@@H](O)[C@H]2O)c1; experiment: Dynamical parameters to coenzyme, variant S156E; type: biochemical, Zymomonas mobilis; conditions: other: NADP 0.01 to 3 mM, ribitol, pH 9.0
From the text: as §1

[11] = substrate: NC(=O)c1ccc[n+]([C@@H]2O[C@H](COP(=O)(O)OP(=O)(O)OC[C@H]3O[C@@H](n4cnc5c(N)ncnc54)[C@H](OP(=O)(O)O)[C@@H]3O)[C@@H](O)[C@H]2O)c1; experiment: Dynamical parameters to coenzyme, variant S156A; type: biochemical, Zymomonas mobilis; conditions: other: NADP 0.01 to 3 mM, ribitol, pH 9.0
From the text: as §1

[12] = substrate: NC(=O)c1ccc[n+]([C@@H]2O[C@H](COP(=O)(O)OP(=O)(O)OC[C@H]3O[C@@H](n4cnc5c(N)ncnc54)[C@H](OP(=O)(O)O)[C@@H]3O)[C@@H](O)[C@H]2O)c1; experiment: Dynamical parameters to coenzyme, variant S156G; type: biochemical, Zymomonas mobilis; conditions: other: NADP 0.01 to 3 mM, ribitol, pH 9.0
From the text: as §1

[13] = substrate: NC(=O)c1ccc[n+]([C@@H]2O[C@H](COP(=O)(O)OP(=O)(O)OC[C@H]3O[C@@H](n4cnc5c(N)ncnc54)[C@H](OP(=O)(O)O)[C@@H]3O)[C@@H](O)[C@H]2O)c1; experiment: Dynamical parameters to coenzyme, variant S156T; type: biochemical, Zymomonas mobilis; conditions: other: NADP 0.01 to 3 mM, ribitol, pH 9.0
From the text: as §1

[14] = Production of L-ribulose from ribitol with cell bodies of recombinant strains expressing the variants; type: cell-based, E. coli; conditions: whole cells, 25° C., 6 hours
Protocol: The following experiments were performed in order to produce L-ribulose using a ribitol dehydrogenase variant having double coenzyme specificity. The variants prepared by using the method of Example 5-3 were expressed using the method of Example 2; the cell bodies were only collected by centrifuging (8000×g for 10 minutes) the recombinant strain culture solution; and then the cell bodies were washed with distilled water twice. The final Cell OD was measured and the same amount of cells was used for a production experiment. The ribitol and each of recombinant enzyme variants were subjected to an enzyme reaction in 20 mM of Tris-HCl buffer (pH 9.5) at a temperature of 25° C. for 6 hours.

[15] = read-out: Km, NAD, NAD 0.01 to 3 mM

NC(=O)c1ccc[n+]([C@@H]2O[C@H](COP(=O)(O)OP(=O)(O)OC[C@H]3O[C@@H](n4cnc5c(N)ncnc54)[C@H](O)[C@@H]3O)[C@@H](O)[C@H]2O)c1 [NAD^+, nicotinamide adenine dinucleotide]
kcat (NAD^+) ([1]; NAD 0.01 to 3 mM): 4.83 ± 0.51 s⁻¹
kcat (NAD(H)) ([1]; NAD(H) 0.1 to 2 mM, 20 mM Tris-HCl, 340 nm): about 4.84 s^−1
Km [1, 15]: 180 ± 20 µM
Km ([1]; read-out: Km, NAD, NAD(H) 0.1 to 2 mM, 20 mM Tris-HCl, 340 nm): ~180 µM
kcat (NAD^+) ([2]; NAD 0.01 to 3 mM): 1.93 ± 0.16 s⁻¹
Km [2, 15]: 190 ± 20 µM
kcat (NAD^+) ([3]; NAD 0.01 to 3 mM): 1.04 ± 0.02 s⁻¹
Km [3, 15]: 140 ± 10 µM
kcat (NAD^+) ([4]; NAD 0.01 to 3 mM): 2.85 ± 0.10 s⁻¹
Km [4, 15]: 210 ± 60 µM
kcat (NAD^+) ([5]; NAD 0.01 to 3 mM): 2.00 ± 0.09 s⁻¹
Km [5, 15]: 100 ± 20 µM
kcat (NAD^+) ([6]; NAD 0.01 to 3 mM): 1.60 ± 0.13 s⁻¹
Km [6, 15]: 150 ± 10 µM
kcat (NAD^+) ([7]; NAD 0.01 to 3 mM): 2.62 ± 0.11 s⁻¹
Km [7, 15]: 160 ± 20 µM
kcat (NAD^+) ([8]; NAD 0.01 to 3 mM): 1.79 ± 0.01 s⁻¹
Km [8, 15]: 20 ± 2 µM
kcat (NAD^+) ([9]; NAD 0.01 to 3 mM): 2.06 ± 0.07 s⁻¹
Km [9, 15]: 50 ± 3 µM

B1: Zymomonas mobilis ribitol dehydrogenase (SEQ ID NO: 4) variant S156E (Zymomonas mobilis subsp. mobilis ZM4 = ATCC 31821; S229E) (protein)
chain: T1 sequence (Q5NQS1 74-338) with S156E
Km [10]: 350 ± 40 µM
kcat [10]: 2.39 ± 0.15 s⁻¹
kcat/Km [10]: 6830 M⁻¹ s⁻¹

B2: Zymomonas mobilis ribitol dehydrogenase (SEQ ID NO: 4) variant S156A (Zymomonas mobilis subsp. mobilis ZM4 = ATCC 31821; S229A) (protein)
chain: T1 sequence (Q5NQS1 74-338) with S156A
Km [11]: 390 ± 130 µM
kcat [11]: 1.19 ± 0.07 s⁻¹
kcat/Km [11]: 3050 M⁻¹ s⁻¹

B3: Zymomonas mobilis ribitol dehydrogenase (SEQ ID NO: 4) variant S156G (Zymomonas mobilis subsp. mobilis ZM4 = ATCC 31821; S229G) (protein)
chain: T1 sequence (Q5NQS1 74-338) with S156G
Km [12]: 340 ± 70 µM
kcat [12]: 0.72 ± 0.08 s⁻¹
kcat/Km [12]: 2120 M⁻¹ s⁻¹

B4: Zymomonas mobilis ribitol dehydrogenase (SEQ ID NO: 4) variant S156T (Zymomonas mobilis subsp. mobilis ZM4 = ATCC 31821; S229T) (protein)
chain: T1 sequence (Q5NQS1 74-338) with S156T
Km [13]: 220 ± 30 µM
kcat [13]: 1.64 ± 0.22 s⁻¹
kcat/Km [13]: 7450 M⁻¹ s⁻¹

B5: S156D: mutant in which serine at position 156 of SEQ ID NO: 4 is substituted with aspartic acid (SEQ ID NO: 5) (protein)
chain: T1 sequence (Q5NQS1 74-338) with S156D, N248D
modifications: mutant
L-ribulose produced, concentration ([14]; 20 mM Tris-HCl buffer pH 9.5, HPLC): 1.21 g/L
conversion rate of L-ribulose in the whole cell level compared with wild-type (in words) ([14]; pH 9.5): higher
